Results on one compound are retold here after patent US12409183B2, “Method of using iloprost for treating frostbite” (BTG INTERNATIONAL INC., priority 2023, dated 2025).

Read-outs that look alike come from different tables or passages of the source.

The conditions of data set [1]: iloprost infusion; ratio x:1; cited from earlier work.
Data set [2] relates to severe frostbite. The following applies: cited from earlier work.
The nature of data set [3]: IV bag solution stability of fully diluted ready-to-use iloprost (HPLC). It is filed as physicochemical. To be noted: condition ia, 25° C./60% RH study; Table 1A. On the procedure: Iloprost 100 μg/mL injection product is administered to patients by IV bag infusion over a period of six hours. The fully diluted ready to use iloprost is prepared in pharmacy cleanroom using sterile preparation standards (USP Chapter <797>) by pharmacy trained and licensed staff. The fully diluted ready to use drug product may be prepared several hours ahead of treatment with storage at ambient conditions or several days ahead of treatment with storage at refrigerated (2-8° C.) conditions. […] The bags are then manually mixed gently to provide a uniform solution. Administration IV bags were prepared and stored at several conditions with routine sampling for assay testing for stability under i) 25° C./60% RH, ii) 5° C. for 5 days to 25° C./60% RH, iii) 5° C. for 8 days to 25° C./60% RH. […] Sampling time for condition […], and 24 h Sampling time for ib): 8 h, 12 h, 48 h, and 96 h Sampling time for condition ii): 5 days (at the end of storage in 2-8° C. stability chamber), 5 days and 8 h, and 5 days and 12 h Sampling time for condition iii): 8 days (at the end of storage in 2-8° C. stability chamber), 8 days and 8 h, and 8 days and 12 h Sample Analysis: Samples were analyzed by HPLC using a validated method (validation protocol not shown). […] The % Initial (initial concentration) of each stored sample was determined per the equation below: […]

In data set [4] the test system is severe frostbite. Kind of data set: systematic literature review and meta-analysis of amputation rates in severe frostbite. It is filed as in vivo, human. On the procedure:
Frostbite is an injury caused by exposure of tissue to freezing temperatures. Severe frostbite may result in amputation leading to considerable morbidity. The objective was to identify and synthesize, via systematic literature review and meta-analysis (MA), evidence published on patient-level historical amputation rates in adults with severe frostbite treated with and without iloprost.
Methods: The literature review was conducted using Preferred Reporting Items for Systematic Reviews and Meta-Analyses (PRISMA) guidelines. It identified English-language articles published from Jan. 1, 2000 to Jul. 31, 2022 reporting amputation rates associated with iloprost and standard of care (SoC) treatments in severe frostbite. Study designs of interest were clinical trials (randomized and single arm), observational studies, and case series with at least 10 patients. MAs of proportions of patients with amputation were conducted. The published studies considered for the MA include:
Determination of Risk of Amputation: Table 1 discloses the historical amputation rates in severe frostbite patients. The studies listed in Table 1 was the basis of MA for determining the historical risk of amputation.
Sensitivity analyses reflect several ways of deriving the data (amputation rate for grade 3-4 frostbite) from the supplemental table in Cauchy 2011 (Cauchy et al., 2011).
Efficacy Proportion of Digits with Amputation: Data from 2 studies reporting the proportion of digits with amputations after receiving iloprost versus SoC for Grade 3/4 frostbite were included in the meta-analysis.

Setting [5] is: Cauchy 2011, iloprost alone and iloprost+tPA combined (n=177).

In the case of `CC#CCC(C)[C@H](O)/C=C/[C@@H]1[C@H]2C/C(=C/CCCC(=O)O)C[C@H]2C[C@H]1O` (stereo partly drawn) [iloprost, (5E)-5-[(3aS,4R,5R,6aS)-5-hydroxy-4-[(E,3S)-3-hydroxy-4-methyloct-1-en-6-ynyl]-3,3a,4,5,6,6a-hexahydro-1H-pentalen-2-ylidene]pentanoic acid], in data set [1], the “ratio of antiaggregatory:vasodilatory potency in vivo” value is 2-7. Besides, the “Amputation Rate: patients considered likely to receive amputation” value in data set [2] (Cauchy 2011, open label RCT, severe (grades 3 or 4) frostbite, with SoC after rewarming, radiotracer anomaly in technetium scintigraphy after 8 days of treatment) is recorded as 0 patients. Also, in data set [2] (Cauchy 2011, Grade 3/4 frostbite, iloprost alone), the digits with amputation entry is reported as “zero out of 78”. Further, in data set [2] (setting [5]), the digit amputations is 1.3% and the “number of digit amputations” value is recorded as 3. Moreover, in data set [2] (Crooks 2022, Grade 3-4 frostbite, minority of iloprost patients also received tPA (5 of 26)), the digits with amputation is on record as 31.1%. The patients with amputation in data set [2] (Poole 2021, iloprost plus SoC, with or without alteplase and heparin) is 33%. Besides, in data set [2] (three iloprost frostbite studies, headache, flushing, palpitations/tachycardia, nausea and vomiting), the “safety events associated with iloprost” value was “generally mild”. For the same compound, the “% initial results for all of the IV bag preparations (range)” value in data set [3] is reported as 94.2-94.9%. The “odds ratio (OR) of digit amputation, iloprost+tPA patients of Cauchy 2011 added” value in data set [4] (iloprost alone and iloprost plus tPA vs SoC, 95% CI: 0.001, 1.12, p=0.057, FIG. 4) is listed as 0.034. Also, the “odds ratio (OR) of digit amputation, base-case” value in data set [4] (iloprost alone vs SoC, 2 studies meta-analyzed, 95% CI: 0.002-0.966, p=0.047, FIG. 3) was 0.047. Besides, the “proportion of patients with amputation, pooled arm-level data” value in data set [4] (meta-analysis, random effects, 95% CI: 0-45%, FIG. 2) stood at 15%. The “advantage for iloprost over SoC (reduction in amputation), base-case” value in data set [4] (studies with severe frostbite, no alprostadil, 95% CI: 6-73%, p=0.02) was determined as 39%.
